Results taken from patent US20070213505A1, “Solution Synthesis of Peptide Cell Growth Stimulators” (priority 2006, published 2007).
Peptide text beside a SMILES is read from it.

Legend:
[1] = system: transfectoma cell line which is an SP2/0 derived line engineered to produce an anti-cytokine monoclonal antibody (mAb); assay: Effect of Gly-Lys-Gly on growth and productivity of a transfectoma cell line in MET1.5 shaker flask culture; type: cell-based; settings: for viable cell density: unsupplemented control 2.0×10^6
Protocol: Two preparations of the tri-peptide, Gly-L-Lys-Gly, were compared for their effect on growth and productivity of a transfectoma cell line which is an SP2/0 derived line engineered to produce an anti-cytokine monoclonal antibody (mAb). The final lot of GKG prepared in Example V was compared to commercial prepared GKG purchased from Bachem (King of Prussia, Pa.).
Cells were cultured in a proprietary defined medium, MET1.5, supplemented with 7.0 mM glutamine, 10 g/L MHX, and 2.0 g/L sodium bicarbonate. The Centocor-made GKG peptide in quantities of 0.35 g/L, 0.70 g/L, and 1.40 g/L were added to 250 mL of MET 1.5 media. The GKG from Bachem was added to 250 mL of MET 1.5 media at concentrations of 0.38 g/L, 0.76g/L, and 1.5 g/L. The cells were cultured in 125 mL shaker flasks and were rotating at 125 RPM. The culture was also incubated at 37° C. in a humidified atmosphere with 5% CO2 and 95% air. The culture volume was 40 mL. Two control flasks and two flasks per peptide concentration were sampled at days zero, one, two, three, four, five, and six for viable cell density and antibody determination.
The cultures were inoculated at a density of 2×10^5 cells/mL and were passaged three times (split every three days). On the third passage they were incubated until the decline phase.
Viable cells and dead cells were calculated by trypan exclusion with the Cedex cell counter. The mAb concentrations were determined by immunoturbidity via the IMMAGE 800 nephelometer (Beckman, Coulter, Brea, Calif.). The effects of the Gly-Lys-Gly peptide on antibody secretion by a production cell line was gauged by calculating integral viable density (IVCC), and titer. IVCC was calculated by integrating the areas under the growth curves. Specific antibody productivity was calculated as the antibody production per day (titer) divided by IVCC.

CHO line = assay: Effect of Gly-Lys-Gly on growth and productivity of a CHO line in chemically defined CHO medium; type: cell-based, Chinese Hamster; settings: CHO medium supplemented at the same concentrations as in the SP2/0 test; results not shown
Excerpt: In a previous experiment, a proprietary chemically defined Chinese Hamster Ovary (CHO) medium was supplemented with both the Centocor and Bachem-made peptides at the same concentrations above.

| Molecule | viable cell density ([1]; 0.35 g/L peptide in MET1.5, mean of two samples) | enhancement of the product yield or viable cell density ([1]; 0.7 g/L peptide in MET1.5) | increase in titer (concentration of mAb) ([1]; 1.4 g/L peptide in MET1.5) [%] | viable cell density and percent viability increases ([1]; 1.4 g/L peptide in MET1.5) | effect on growth and productivity (CHO line) | viable cell density ([1]; 0.38 g/L peptide in MET1.5, mean of two samples) | titer ([1]; 0.76 g/L peptide in MET1.5, rose from 117 mg/L without supplement, mean of two samples) [mg/L] | increase in titer (concentration of mAb) ([1]; 1.5 g/L peptide in MET1.5) [%] | viable cell density and percent viability increases ([1]; 1.5 g/L peptide in MET1.5) |
| --- | --- | --- | --- | --- | --- | --- | --- | --- | --- |
| NCCCC[C@H](NC(=O)CN)C(=O)NCC(=O)O [Centocor-made peptide, Glycyl-L-Lysyl-Glycine] (H-Gly-Lys-Gly-OH) | 2.5×10^6 viable cells/mL | No enhancement | 21 | could not be observed | minimal to no effect | – | – | – | – |
| Gly-L-Lys-Gly [Bachem-made-peptide] | – | – | – | – | minimal to no effect | 2.6×10^6 viable cells/mL | 137 | 34 | could not be observed |
